# Results as given in ChEMBL document CHEMBL1145498, “A systematic interaction map of validated kinase inhibitors with Ser/Thr kinases” (Proc Natl Acad Sci U S A, 2007).
# Key:
# [1] = biological target: Calcium/calmodulin-dependent protein kinase type 1D (Homo sapiens) (UniProt Q8IU85)
# [2] = biological target: T1, Calcium/calmodulin-dependent protein kinase type IV (Homo sapiens) (UniProt Q16566)
# T1 sequence (whole entry): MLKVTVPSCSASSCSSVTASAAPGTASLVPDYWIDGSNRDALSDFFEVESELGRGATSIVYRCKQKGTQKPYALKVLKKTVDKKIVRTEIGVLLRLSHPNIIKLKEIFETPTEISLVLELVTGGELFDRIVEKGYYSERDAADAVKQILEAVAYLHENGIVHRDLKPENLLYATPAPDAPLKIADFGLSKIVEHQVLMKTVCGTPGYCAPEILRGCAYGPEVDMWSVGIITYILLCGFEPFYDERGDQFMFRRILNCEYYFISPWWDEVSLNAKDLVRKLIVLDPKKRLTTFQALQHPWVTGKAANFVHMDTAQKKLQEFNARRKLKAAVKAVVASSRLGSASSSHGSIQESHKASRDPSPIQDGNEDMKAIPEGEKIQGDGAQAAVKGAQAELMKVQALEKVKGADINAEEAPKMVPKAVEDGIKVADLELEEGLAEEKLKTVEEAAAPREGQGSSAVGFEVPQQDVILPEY
# [3] = biological target: Glycogen synthase kinase-3 beta (Homo sapiens, UniProt P49841)
# [4] = biological target: T2, Mitogen-activated protein kinase kinase kinase 5 (Homo sapiens) (UniProt Q99683)
# T2 sequence (whole entry): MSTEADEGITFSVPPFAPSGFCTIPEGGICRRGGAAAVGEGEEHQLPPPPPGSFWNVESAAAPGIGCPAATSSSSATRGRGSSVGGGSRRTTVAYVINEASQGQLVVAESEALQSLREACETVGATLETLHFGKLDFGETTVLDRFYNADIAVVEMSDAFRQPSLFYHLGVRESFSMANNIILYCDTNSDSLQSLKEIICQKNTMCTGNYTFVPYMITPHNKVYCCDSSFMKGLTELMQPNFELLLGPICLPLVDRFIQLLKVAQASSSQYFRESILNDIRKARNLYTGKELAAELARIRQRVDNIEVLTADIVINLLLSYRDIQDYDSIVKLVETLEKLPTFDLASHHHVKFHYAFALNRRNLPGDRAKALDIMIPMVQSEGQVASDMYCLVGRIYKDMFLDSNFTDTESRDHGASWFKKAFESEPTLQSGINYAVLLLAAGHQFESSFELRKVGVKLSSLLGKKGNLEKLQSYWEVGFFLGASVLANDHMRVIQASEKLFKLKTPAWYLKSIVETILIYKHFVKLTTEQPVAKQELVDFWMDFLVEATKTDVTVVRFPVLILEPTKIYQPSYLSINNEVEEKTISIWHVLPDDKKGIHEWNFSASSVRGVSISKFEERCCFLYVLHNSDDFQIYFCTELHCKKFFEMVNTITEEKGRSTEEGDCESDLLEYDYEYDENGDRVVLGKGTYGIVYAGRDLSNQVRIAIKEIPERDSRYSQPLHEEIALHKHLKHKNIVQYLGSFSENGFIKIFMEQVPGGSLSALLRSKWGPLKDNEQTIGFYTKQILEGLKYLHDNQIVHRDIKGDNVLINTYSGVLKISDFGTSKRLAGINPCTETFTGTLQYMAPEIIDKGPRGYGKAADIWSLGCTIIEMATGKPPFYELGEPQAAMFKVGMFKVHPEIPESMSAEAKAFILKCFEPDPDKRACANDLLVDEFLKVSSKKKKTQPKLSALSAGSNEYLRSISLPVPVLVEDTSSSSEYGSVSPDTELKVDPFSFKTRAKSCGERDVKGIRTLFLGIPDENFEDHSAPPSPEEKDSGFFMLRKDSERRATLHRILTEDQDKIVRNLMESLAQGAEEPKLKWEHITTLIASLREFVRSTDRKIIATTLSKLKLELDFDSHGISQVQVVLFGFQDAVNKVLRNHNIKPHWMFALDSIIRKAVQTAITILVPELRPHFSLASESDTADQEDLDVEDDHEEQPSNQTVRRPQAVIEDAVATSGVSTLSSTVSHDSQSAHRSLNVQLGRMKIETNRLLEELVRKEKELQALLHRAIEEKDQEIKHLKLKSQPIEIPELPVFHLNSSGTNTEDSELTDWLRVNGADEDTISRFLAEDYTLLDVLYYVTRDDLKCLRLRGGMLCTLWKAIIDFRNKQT
# [5] = biological target: Mitogen-activated protein kinase 6 (Homo sapiens) (UniProt Q16659)
# [6] = biological target: T3, Serine/threonine-protein kinase Nek2 (Homo sapiens) (UniProt P51955)
# T3 sequence (whole entry): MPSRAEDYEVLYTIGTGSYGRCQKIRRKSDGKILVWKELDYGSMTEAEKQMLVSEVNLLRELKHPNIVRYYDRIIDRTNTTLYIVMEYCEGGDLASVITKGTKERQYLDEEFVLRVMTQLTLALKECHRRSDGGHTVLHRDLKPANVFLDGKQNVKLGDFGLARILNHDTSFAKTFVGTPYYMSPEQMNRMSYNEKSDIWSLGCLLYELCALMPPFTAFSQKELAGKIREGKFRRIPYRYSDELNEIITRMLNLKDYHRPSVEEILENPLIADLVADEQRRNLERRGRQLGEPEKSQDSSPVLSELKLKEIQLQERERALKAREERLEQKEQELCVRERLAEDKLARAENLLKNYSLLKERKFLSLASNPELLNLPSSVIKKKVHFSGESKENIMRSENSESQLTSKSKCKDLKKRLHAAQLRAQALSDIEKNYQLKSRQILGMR
# [7] = biological target: Serine/threonine-protein kinase PAK 4 (Homo sapiens) (UniProt O96013)
# [8] = biological target: Serine/threonine-protein kinase pim-2 (Homo sapiens, UniProt Q9P1W9)
# [9] = biological target: Ribosomal protein S6 kinase alpha-3 (Homo sapiens) (UniProt P51812)
# [10] = biological target: T4, Lymphokine-activated killer T-cell-originated protein kinase (Homo sapiens) (UniProt Q96KB5)
# T4 sequence (whole entry): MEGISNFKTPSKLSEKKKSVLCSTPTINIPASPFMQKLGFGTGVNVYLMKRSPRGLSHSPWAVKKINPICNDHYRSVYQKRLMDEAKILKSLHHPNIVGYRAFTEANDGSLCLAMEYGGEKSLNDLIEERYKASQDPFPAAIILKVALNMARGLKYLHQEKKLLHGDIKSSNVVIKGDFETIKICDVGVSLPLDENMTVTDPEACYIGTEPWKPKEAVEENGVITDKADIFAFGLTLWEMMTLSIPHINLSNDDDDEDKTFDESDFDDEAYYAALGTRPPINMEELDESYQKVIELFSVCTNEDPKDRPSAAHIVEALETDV
# Sequence of Glycogen synthase kinase-3 beta (P49841 whole entry, looked up): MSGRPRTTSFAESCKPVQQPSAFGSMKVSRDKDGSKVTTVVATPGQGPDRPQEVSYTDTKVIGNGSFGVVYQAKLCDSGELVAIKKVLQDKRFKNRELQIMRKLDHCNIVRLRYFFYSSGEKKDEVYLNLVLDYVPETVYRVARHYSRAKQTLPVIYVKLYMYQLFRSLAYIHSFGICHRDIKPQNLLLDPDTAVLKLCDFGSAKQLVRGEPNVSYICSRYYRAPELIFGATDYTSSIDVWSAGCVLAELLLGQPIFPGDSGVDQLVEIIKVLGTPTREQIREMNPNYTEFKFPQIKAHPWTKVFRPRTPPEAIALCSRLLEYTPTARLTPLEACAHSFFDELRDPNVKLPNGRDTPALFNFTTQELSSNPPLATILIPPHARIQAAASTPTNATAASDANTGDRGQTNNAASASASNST
# Sequence of Ribosomal protein S6 kinase alpha-3 (Homo sapiens) (P51812 whole entry): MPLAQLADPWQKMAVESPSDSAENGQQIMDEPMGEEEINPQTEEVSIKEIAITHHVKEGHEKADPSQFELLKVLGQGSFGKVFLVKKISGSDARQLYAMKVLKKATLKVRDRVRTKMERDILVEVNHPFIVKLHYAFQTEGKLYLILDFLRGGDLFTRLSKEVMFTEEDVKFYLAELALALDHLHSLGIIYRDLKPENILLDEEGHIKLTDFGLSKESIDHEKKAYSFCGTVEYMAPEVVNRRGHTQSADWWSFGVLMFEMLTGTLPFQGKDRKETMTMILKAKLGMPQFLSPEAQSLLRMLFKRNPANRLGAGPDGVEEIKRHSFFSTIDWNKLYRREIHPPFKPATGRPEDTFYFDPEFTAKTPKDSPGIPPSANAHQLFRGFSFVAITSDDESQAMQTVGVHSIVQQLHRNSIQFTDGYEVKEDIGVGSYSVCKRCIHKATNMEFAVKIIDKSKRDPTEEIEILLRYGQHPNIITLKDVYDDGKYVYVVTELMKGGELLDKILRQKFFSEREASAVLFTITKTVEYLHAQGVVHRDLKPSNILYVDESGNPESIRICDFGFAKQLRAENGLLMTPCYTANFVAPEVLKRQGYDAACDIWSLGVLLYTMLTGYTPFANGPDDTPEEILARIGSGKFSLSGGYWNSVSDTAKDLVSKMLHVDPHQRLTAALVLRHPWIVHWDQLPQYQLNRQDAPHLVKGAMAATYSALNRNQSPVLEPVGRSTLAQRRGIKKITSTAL
# Sequence of Serine/threonine-protein kinase PAK 4 (Homo sapiens) (O96013 whole entry, looked up): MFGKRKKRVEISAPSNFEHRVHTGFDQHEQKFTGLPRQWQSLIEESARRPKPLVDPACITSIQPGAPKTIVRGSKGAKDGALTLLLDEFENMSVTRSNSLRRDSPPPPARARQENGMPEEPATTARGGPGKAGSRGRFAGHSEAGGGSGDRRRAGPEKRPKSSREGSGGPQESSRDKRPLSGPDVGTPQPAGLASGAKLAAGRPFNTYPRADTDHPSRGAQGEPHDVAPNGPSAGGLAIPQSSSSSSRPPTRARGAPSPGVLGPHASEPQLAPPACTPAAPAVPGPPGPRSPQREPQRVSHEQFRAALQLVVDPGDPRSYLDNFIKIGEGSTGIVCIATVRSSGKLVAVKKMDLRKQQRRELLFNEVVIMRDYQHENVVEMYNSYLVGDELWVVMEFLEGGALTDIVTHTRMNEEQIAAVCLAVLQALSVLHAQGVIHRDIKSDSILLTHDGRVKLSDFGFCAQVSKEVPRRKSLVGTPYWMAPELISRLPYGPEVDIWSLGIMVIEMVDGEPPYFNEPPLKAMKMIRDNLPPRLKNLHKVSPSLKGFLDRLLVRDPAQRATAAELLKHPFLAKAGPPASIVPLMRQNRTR
# Sequence of Calcium/calmodulin-dependent protein kinase type 1D (Homo sapiens) (Q8IU85 whole entry, looked up): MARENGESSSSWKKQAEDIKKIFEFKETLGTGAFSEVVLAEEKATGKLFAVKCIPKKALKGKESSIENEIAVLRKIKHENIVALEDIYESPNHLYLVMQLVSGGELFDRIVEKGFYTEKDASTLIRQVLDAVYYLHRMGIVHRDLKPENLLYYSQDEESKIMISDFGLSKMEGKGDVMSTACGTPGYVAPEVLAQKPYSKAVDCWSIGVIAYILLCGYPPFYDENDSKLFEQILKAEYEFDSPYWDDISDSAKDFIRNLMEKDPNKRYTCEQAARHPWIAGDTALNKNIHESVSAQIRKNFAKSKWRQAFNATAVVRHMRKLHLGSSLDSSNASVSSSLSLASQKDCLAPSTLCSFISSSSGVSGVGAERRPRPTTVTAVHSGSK
# Sequence of Serine/threonine-protein kinase pim-2 (Q9P1W9 whole entry, looked up): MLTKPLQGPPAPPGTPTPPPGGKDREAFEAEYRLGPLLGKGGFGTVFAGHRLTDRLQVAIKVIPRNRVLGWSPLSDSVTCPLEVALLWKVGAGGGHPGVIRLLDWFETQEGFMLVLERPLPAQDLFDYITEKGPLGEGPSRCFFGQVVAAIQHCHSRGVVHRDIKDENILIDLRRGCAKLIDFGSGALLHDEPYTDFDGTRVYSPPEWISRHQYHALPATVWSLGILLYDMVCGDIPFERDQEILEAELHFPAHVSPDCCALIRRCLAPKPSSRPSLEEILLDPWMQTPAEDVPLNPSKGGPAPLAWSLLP
# Sequence of Mitogen-activated protein kinase 6 (Homo sapiens) (Q16659 whole entry): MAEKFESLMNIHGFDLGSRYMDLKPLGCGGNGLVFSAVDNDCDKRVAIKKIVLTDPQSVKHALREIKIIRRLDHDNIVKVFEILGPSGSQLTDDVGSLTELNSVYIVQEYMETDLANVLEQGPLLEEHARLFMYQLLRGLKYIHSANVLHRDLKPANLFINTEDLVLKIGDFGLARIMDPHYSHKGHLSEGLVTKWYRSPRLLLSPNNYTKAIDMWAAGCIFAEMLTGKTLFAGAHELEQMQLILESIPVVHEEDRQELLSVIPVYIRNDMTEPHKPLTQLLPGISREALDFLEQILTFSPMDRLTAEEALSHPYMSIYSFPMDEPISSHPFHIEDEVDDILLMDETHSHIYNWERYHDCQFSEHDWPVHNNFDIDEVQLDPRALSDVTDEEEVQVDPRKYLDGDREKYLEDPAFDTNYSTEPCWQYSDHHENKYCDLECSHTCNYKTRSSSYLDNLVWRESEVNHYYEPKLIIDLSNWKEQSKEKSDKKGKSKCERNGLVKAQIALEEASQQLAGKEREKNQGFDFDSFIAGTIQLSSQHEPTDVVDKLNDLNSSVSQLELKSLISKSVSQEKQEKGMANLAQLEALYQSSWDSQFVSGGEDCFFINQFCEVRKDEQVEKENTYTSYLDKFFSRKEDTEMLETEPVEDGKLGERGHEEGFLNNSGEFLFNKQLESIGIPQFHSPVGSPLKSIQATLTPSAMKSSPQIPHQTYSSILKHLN
SMILES,ΔTm [1] [°C],ΔTm [2] [°C],ΔTm [3] [°C],ΔTm [4] [°C],ΔTm [5] [°C],ΔTm [6] [°C],ΔTm [7] [°C],ΔTm [8] [°C],ΔTm [9] [°C],ΔTm [10] [°C]
CCOc1cc2ncnc(Nc3cccc(Br)c3)c2cc1OCC,0.7,0.3,2.8,0.6,0.2,1.1,0.4,1.1,2.5,0.1
Nc1n[nH]c2nc3ccccc3nc12 [QUINOXALINE1],0.2,0.3,2.2,2.6,0.4,1.2,-0.3,1.3,0.4,0.5
Cc1nc2sccn2c(=O)c1CCN1CCC(=C(c2ccccc2)c2ccc(F)cc2)CC1,0.5,-0.2,2.6,5.8,0.2,0.1,0.8,3.3,2.8,-0.5
Nc1cccc(-c2cc3c(Oc4cccc(O)c4)ncnc3[nH]2)c1,0.3,0.2,7.6,0.5,1.2,2.6,2.8,0.8,0.4,0.6
COc1ccc(S(=O)(=O)N(CCO)c2ccccc2CN(C)C/C=C/c2ccc(Cl)cc2)cc1,-0.3,-0.3,0,-0.1,-0.5,-0.1,-0.1,0.6,-0.9,-0.1
NCCNS(=O)(=O)c1cccc2c(Cl)cccc12,0,-0.1,0.1,0.4,0.3,0.7,0.5,1.7,0.5,-0.2
CC[C@H](CO)Nc1nc(NCc2ccccc2)c2ncn(C(C)C)c2n1 [SELICICLIB],0,0.2,0.4,1,-0.4,0.7,1.7,0.3,1.1,0.8
CCOc1ccc(/C=C2/SC(=O)N(CCN)C2=O)cc1 [HIAZOLIDINEDIONE1],-0.2,0.4,-1.3,0.4,0.6,0.8,0.6,-0.1,0,0.2
NC(=O)c1ccc2[nH]c(-c3ccc(Oc4ccc(Cl)cc4)cc3)nc2c1,1.1,-0.4,1,1,0.5,1.4,1.3,1,0.7,0.9
C=CNC#N,0.7,0.9,0.5,0.4,1,2.1,1.8,0.3,0,-1.1
COc1ccc2c(c[n+](C)c3c4cc5c(cc4ccc23)OCO5)c1OC [CHELERYTHRINE CHLORIDE],-5.3,-0.6,-1.5,-0.2,-0.3,-1.2,-3.8,-3.1,-1.3,-0.4
CCOC(=O)c1cnc2oc3ccc(O)cc3c2c1-c1ccccc1,0.4,0.8,4.3,2.1,0.2,0.9,0.7,6.3,4.4,-0.2
NS(=O)(=O)c1ccc(Nc2nc(OCC3CCCCC3)c3nc[nH]c3n2)cc1,0.8,0.7,4.3,2.4,1,4.9,3.8,0.6,1.3,0.9
O=C1NC(=O)c2c1c1c3ccccc3n3c1c1c2c2ccccc2n1C1CCC3O1,1.6,-0.2,-0.2,3.9,0.5,0.3,2.8,5.5,0,-0.3
CCCNC(=O)Nc1ccc(Oc2ncnc3cc(OC)c(OC)cc23)cc1Cl [KRN-633],0.5,0.9,0.1,0.3,1.2,-0.3,0.5,0.2,5.8,0.2
CCN(CC)CCNC(=O)c1c(C)[nH]c(/C=C2\C(=O)Nc3ccc(Cl)cc32)c1C [SU-11652],2.6,3.3,3.8,6.3,0.8,5.1,6.4,2.3,8.5,-0.4
NCCNc1ncc(C(N)=O)c(Nc2cccc(C(F)(F)F)c2)n1,5.1,0.9,8.1,-0.1,3,0.2,6.1,0.7,3.3,0.5
Cc1cc(C=C2C(=O)C=CC2=O)cc(C)c1O,-1,-0.1,-2.9,2.6,-1.6,0.8,0.7,-5.7,1.8,0.2
